These are literature values, as cited in patent publication US20180272346A1, “MODULAR ORGAN MICROPHYSIOLOGICAL SYSTEM WITH MICROBIOME” (Massachusetts Institute of Technology, priority 2017, published 2018).

The conditions of series [1]: oral, in vivo; read-out: maximum measured plasma concentration, Cmax.
The test system of series [2] is immune-competent liver MPS (hepatocytes and Kupffer cells).
For series [3], the system named is 7-way MPS platform (gut, liver and other MPSs).
Series [4] concerns human hepatocytes and kupffer cells co-culture.
The subject of series [5] is immune-competent gut MPS (Caco2, HT29-MTX, dendritic cells).
Series [6] concerns immune-competent gut-liver interacted MPS. As to conditions: tolcapone added to gut MPS ("oral").

Turning to `O=C(O)Cc1ccccc1Nc1c(Cl)cccc1Cl` [Diclofenac, diclofenac], the Cmax in series [1] is 2 to 6 µM. In series [2], the cell death entry is on record as “minimal”. Further, the “function and cellular death” value in the series with endometrium MPS is “loss of function correlating with cellular death”. In addition, in series [3], the “absorption and distribution across MPS compartments” value was “absorbed across the gut epithelial barrier”. For the same compound, in series [3] (diclofenac added to apical side of gut MPS, estimated), the “unbound intrinsic clearance (CL_int(u))” value was 13.90 µL/min. For the same compound, in series [3] (estimated), the “fraction of clearance towards formation of the 4-OH-DCF metabolite” value was “approximately 19%”.
For the compound “Lipopolysaccharide [Lipopolysaccharide (LPS)]”, the “lowest LPS stimulus the co-cultures were responsive to” value in series [4] (hepatocyte-Kupffer co-culture) is 0.01 µg/mL.
With `C[C@]12CCC(=O)C=C1CC[C@@H]1[C@@H]2[C@@H](O)C[C@@]2(C)[C@H]1CC[C@]2(O)C(=O)CO` [Hydrocortisone (cortisol), Hydrocortisone], in series [4] (cocultured liver MPS), the differentiated function entry is given as “enhanced” and the inflammatory response entry was “suppressed”. Also, the CYP450 activity entry in series [4] (cultures up to 21 days) is given as “sensitive to hydrocortisone levels”.
On to `Cc1ccc(C(=O)c2cc(O)c(O)c([N+](=O)[O-])c2)cc1` [Tolcapone], for which, in series [5], the cell death result is listed as “severe cellular death” and the epithelial function entry was “complete loss of epithelial function”. Moreover, in series [6], the “MPS-specific cell death markers” value is recorded as “suffered from MPS-specific cell death markers”; the “generic cell death marker” value is given as “insensitive”; the “gut and liver MPS function” value is on record as “MPS-specific loss of function”. In series [2], the cell death entry is reported as “caused cell death” and the mitochondrial activity result was “decreased”. In addition, the “function and cellular death” value in the series with endometrium MPS is given as “loss of function correlating with cellular death”.
